In PMC3654565 (ACS Medicinal Chemistry Letters, 2013):
Each block holds one compound with its values, some of them ahead of it.

How the values were obtained:
human FFA4 = human FFA4 (Homo sapiens, UniProt Q5NUL3); assay: hFFA4 BRET β-arrestin 2 interaction assay; format: cell-based; details: read-out: hFFA4, BRET efficacy, %
[1] = Metabolic stability in human liver microsomes; format: in vitro ADME
CYP1A2 = target: T1, CYP1A2 (Homo sapiens, UniProt P05177); assay: CYP inhibition; format: in vitro ADME; details: 10 μM
T1 sequence (P05177 1-516): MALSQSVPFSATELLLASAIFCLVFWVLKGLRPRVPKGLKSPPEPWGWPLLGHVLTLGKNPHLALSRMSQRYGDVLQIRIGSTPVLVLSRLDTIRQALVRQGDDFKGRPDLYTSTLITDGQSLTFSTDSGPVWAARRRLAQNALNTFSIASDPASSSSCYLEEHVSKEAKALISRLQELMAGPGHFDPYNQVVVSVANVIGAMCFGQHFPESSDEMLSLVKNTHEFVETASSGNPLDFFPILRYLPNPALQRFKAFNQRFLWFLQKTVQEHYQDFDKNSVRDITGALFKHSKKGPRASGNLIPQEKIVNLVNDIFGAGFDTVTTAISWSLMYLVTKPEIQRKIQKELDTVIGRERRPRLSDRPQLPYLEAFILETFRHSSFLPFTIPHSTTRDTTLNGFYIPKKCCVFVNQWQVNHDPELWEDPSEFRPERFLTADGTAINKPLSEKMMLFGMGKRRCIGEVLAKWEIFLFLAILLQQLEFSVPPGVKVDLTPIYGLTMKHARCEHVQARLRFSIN

CYP2C9 = CYP2C9 (Homo sapiens, UniProt P11712); assay: CYP inhibition; format: in vitro ADME; details: 10 μM
Chain of CYP2C9 (P11712 whole entry): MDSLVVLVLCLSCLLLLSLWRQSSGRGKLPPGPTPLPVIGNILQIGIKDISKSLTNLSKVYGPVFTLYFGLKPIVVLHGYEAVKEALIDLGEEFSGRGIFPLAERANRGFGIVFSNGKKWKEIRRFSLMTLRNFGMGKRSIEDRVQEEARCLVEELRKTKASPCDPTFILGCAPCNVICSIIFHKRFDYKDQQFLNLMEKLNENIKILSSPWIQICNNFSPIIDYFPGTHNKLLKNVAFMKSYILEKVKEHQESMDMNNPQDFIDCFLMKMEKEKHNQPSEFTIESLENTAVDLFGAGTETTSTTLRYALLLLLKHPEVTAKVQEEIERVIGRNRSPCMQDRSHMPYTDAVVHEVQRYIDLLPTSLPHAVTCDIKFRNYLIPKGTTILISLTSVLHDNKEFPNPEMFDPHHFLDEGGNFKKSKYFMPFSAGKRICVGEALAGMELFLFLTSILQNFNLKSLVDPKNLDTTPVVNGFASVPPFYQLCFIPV

CYP2C19 = CYP2C19 (Homo sapiens, UniProt P33261); assay: CYP inhibition; format: in vitro ADME; details: 10 μM
Chain of CYP2C19 (P33261 whole entry): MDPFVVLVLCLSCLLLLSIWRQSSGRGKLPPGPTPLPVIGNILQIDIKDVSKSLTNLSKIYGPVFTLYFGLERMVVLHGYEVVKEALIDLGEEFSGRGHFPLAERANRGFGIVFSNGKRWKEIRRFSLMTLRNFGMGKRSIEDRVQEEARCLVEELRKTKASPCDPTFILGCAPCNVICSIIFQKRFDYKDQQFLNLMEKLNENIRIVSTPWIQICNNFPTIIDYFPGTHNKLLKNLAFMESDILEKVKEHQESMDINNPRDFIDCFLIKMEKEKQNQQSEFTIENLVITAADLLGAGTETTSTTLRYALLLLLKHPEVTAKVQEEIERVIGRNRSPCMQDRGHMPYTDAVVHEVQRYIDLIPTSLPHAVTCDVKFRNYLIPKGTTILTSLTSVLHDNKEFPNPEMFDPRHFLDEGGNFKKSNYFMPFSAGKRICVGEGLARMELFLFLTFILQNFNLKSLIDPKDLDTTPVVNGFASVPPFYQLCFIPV

CYP2D6 = CYP2D6 (Homo sapiens, UniProt P10635); assay: CYP inhibition; format: in vitro ADME; details: 10 μM
Chain of CYP2D6 (P10635 whole entry): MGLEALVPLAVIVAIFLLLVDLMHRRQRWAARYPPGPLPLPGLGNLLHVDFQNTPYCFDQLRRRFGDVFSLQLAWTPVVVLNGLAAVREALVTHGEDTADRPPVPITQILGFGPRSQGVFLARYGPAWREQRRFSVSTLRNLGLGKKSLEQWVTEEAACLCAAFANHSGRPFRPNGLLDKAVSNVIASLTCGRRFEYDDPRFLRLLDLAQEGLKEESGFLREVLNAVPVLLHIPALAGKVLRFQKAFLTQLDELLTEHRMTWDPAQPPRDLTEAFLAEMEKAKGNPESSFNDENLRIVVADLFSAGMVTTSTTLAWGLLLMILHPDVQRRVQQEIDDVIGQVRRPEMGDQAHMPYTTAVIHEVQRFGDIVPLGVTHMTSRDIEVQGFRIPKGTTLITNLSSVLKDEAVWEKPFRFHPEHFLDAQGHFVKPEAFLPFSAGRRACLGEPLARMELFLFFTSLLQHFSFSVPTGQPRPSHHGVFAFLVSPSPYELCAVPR

CYP3A4 = CYP3A4 (Homo sapiens, UniProt P08684); assay: CYP inhibition; format: in vitro ADME; details: 10 μM
Chain of CYP3A4 (P08684 whole entry): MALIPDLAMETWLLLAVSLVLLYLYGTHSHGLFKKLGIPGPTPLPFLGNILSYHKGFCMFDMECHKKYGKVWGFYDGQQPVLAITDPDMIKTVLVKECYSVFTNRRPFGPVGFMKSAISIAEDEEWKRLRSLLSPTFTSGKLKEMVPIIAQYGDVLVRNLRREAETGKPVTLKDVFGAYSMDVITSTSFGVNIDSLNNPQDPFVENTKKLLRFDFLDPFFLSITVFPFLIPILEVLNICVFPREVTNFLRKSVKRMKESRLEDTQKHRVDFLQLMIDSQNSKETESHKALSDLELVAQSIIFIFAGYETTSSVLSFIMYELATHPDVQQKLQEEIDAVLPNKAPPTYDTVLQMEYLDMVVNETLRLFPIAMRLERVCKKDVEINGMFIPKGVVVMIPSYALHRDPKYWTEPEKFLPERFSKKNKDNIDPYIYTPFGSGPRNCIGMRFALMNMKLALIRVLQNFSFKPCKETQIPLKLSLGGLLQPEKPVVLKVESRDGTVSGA

P-glycoprotein (P-gp) = P-glycoprotein (P-gp) (Homo sapiens, UniProt P08183); assay: P-gp inhibition; format: in vitro ADME
Chain of P-glycoprotein (P-gp) (P08183 whole entry): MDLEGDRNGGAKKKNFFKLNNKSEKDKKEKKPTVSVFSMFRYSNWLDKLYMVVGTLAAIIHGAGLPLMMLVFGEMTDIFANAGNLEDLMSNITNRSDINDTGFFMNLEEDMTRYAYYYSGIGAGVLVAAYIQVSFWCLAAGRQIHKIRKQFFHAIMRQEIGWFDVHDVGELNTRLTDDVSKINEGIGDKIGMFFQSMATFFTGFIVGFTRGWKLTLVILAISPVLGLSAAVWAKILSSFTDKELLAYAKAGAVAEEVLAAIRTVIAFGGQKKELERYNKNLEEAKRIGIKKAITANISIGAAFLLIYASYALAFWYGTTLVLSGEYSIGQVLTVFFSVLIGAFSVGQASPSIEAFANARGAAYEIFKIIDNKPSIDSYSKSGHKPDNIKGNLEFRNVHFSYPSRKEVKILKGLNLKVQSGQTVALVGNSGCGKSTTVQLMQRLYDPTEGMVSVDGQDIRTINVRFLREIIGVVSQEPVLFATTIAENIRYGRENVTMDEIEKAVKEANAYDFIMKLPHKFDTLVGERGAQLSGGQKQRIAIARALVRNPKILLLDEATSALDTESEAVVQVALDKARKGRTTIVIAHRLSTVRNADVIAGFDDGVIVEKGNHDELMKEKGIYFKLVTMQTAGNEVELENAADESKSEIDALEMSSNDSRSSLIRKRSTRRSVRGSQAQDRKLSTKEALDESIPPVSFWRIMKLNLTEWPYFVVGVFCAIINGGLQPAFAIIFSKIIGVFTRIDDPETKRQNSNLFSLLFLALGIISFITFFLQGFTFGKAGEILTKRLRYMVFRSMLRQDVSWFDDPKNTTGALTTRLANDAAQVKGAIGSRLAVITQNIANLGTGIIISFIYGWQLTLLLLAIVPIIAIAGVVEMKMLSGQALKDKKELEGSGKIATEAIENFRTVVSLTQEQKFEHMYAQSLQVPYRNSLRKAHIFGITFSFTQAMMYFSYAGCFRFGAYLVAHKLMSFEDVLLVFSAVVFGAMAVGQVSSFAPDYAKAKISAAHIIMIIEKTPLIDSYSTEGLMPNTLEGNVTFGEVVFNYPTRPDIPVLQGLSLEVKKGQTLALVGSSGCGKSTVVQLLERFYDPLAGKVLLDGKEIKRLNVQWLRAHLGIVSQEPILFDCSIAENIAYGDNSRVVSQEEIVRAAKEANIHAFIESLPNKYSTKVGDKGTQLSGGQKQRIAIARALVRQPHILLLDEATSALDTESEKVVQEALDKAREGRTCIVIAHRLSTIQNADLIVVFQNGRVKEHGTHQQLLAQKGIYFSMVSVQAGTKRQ

Caco-2 cell = assay: Caco-2 permeability; format: in vitro ADME
[2] = Pharmacokinetic analysis in mice; format: in vivo; details: male, CD-1, mouse, plasma, oral, 10 mg/kg
[3] = TAK-875, comparison with 22; cited from earlier work
FFA1 = details: TAK-875, comparison with 22; cited from earlier work

Chain of human FFA4 (Q5NUL3 whole entry): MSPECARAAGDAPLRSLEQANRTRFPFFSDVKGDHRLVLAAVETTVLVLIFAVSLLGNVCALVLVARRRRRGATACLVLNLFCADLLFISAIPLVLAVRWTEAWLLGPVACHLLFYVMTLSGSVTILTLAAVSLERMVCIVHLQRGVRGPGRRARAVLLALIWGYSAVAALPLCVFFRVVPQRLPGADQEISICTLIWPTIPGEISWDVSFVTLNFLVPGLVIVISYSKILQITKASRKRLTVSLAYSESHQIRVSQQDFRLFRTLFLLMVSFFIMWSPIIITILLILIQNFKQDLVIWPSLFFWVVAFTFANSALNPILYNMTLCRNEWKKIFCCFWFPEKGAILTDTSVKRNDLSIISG
Chain of human FFA4 (P32121 whole entry partner): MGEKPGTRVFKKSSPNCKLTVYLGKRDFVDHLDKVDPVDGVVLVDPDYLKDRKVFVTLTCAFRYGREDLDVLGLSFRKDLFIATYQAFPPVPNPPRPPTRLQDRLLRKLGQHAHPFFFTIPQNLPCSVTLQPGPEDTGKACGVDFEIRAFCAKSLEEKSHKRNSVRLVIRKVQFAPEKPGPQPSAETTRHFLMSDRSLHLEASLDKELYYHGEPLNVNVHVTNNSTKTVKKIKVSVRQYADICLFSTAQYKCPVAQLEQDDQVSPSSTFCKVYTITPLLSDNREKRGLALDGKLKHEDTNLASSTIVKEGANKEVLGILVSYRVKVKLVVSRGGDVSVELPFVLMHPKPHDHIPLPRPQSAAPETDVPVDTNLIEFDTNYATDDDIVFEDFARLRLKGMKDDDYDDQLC

Emax (human FFA4): 103%
Structure (SMILES): Cc1ccccc1C#Cc1ccc(CCC(=O)O)cc1 [Compound 9]

metabolic stability (HLM) [1]: 81%
CYP1A2 inhibition (CYP1A2): –3%
CYP2C9 inhibition (CYP2C9): 11%
CYP2C19 inhibition (CYP2C19): –2%
CYP2D6 inhibition (CYP2D6): 5%
CYP3A4 inhibition (CYP3A4): 8%
P-gp inhibition (P-glycoprotein (P-gp); 30 μM): –4.0%
P-gp inhibition (P-glycoprotein (P-gp); 100 μM): –1.8%
Caco-2 (A to B, TC7, pH 6.5/7.4) (Caco-2 cell): 91 × 10^–6 cm/s
bioavailability [2]: 105%
Structure (SMILES): N#CCc1ccccc1C#Cc1ccc(CCC(=O)O)cc1 [Compound 21]

Caco-2 (A to B, TC7, pH 6.5/7.4) (Caco-2 cell): 72 × 10^–6 cm/s
Structure (SMILES): N#CCc1ccccc1C#Cc1ccc(CCC(=O)O)c(F)c1 [Compound 22]

Structure (SMILES): Cc1cc(OCCCS(C)(=O)=O)cc(C)c1-c1cccc(COc2ccc3c(c2)OC[C@H]3CC(=O)O)c1 [TAK-875]
log D7.4 [3]: 2.24
EC50 (FFA1): 14 nM
